Patent publication US11753410B2, “Hormone receptor modulators for treating metabolic mutagenic and fibrotic conditions and disorders” (priority 2017, dated 2023)

How the values were obtained:
[1] = biological target: T1, ligand binding domain of human FXR (Homo sapiens, UniProt Q96RI1); test: biochemical
T1 construct: purchased Thermofisher (LanthaScreen) PV4833
T1 sequence (Q96RI1 262-486 limits assumed): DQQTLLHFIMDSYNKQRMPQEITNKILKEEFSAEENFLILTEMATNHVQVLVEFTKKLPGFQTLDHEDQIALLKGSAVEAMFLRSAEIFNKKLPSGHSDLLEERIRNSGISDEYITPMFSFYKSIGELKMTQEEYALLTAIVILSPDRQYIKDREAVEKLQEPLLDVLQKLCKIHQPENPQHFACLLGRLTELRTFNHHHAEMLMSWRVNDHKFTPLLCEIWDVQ

[2] = biological target: T2, human Farnesoid X receptor ligand-binding domain/Gal4 DNA binding domain chimera (Homo sapiens, UniProt Q96RI1); test: Cell-based assay of FXR activation (FXR-UAS-bla HEK 293T beta-lactamase reporter)
T2 construct: host or cells: FXR-UAS-bla HEK 293T (CellSensor UAS-bla HEK 293T)
T2 sequence (Q96RI1 262-486 limits assumed): T1 sequence (Q96RI1 262-486 limits assumed)
Method: FXR activation was measured using a cell line and procedure obtained from Life Technologies (Cat #K1691). […] Activation of FXR by bound ligands results in transcriptional activation of the beta-lactamase reporter gene, which is detected via assay of beta-lactamase activity.
Cells are harvested and diluted into assay medium containing phenol red-free DMEM supplemented with 2% Charcoal-stripped FBS, pyruvate, non-essential amino acids. Cells are then transferred to a 384 well assay plate. Test compounds are dissolved in DMSO and a 3-fold serial dilution series is generated, then further diluted into assay medium. Compounds in assay medium are added to cells in the 384 well plate and allowed to incubate 16 h at 37 C in the presence of 5% CO2.
A FRET-based […] (CCF4) is loaded into cells as its acetomethoxy ester. Intracellular esterases liberate free CCF4, a cephalosporin core linking 7-hydroxycoumarin to fluorescein. In the presence of beta-lactamase activity produced in the presence of FXR agonists, cleavage of CCF4 spatially separates the two dyes and disrupts FRET, so that exciting the coumarin at 409 nm now produces a blue fluorescence signal at 447 nm. The change in FRET signal is plotted against the test compound concentration and fit to a 3-parameter logistical equation.

Q: How did the Emax ([1]; extent of activation relative to GW4064, read-out: Ligand Binding % Efficacy) turn out when `O=C(NS(=O)(=O)C1CCOCC1)c1ccc(N2C[C@@H]3C[C@H]2C[C@H]3OCc2c(C3CC3)cnn2-c2c(Cl)cccc2Cl)cc1` [Compound I-20, 4-[(1S,4S,5R)-5-{[4-cyclopropyl-1-(2,6-dichlorophenyl)-1H-pyrazol-5-yl]methoxy}-2-azabicyclo[2.2.1]heptan-2-yl]-N-(oxane-4-sulfonyl)benzamide] was run?
A: 147%

Q: What about the EC50 ([1]; −log EC50, concentration required to produce 50% activation, FRET 520 nm/495 nm, 1 hour at room temperature, read-out: Ligand Binding pEC50 (converted)) of the same compound?
A: 3.16 nM

Q: And the EC50 [2]?
A: 0.794 nM

Q: What about the Emax ([2]; HEK-293T, read-out: Cellular % Efficacy) of the same compound?
A: 102%
